US5037830A, “Novel thiouracyl derivatives, pharmaceutical compositions containing them and process for preparing same” (Richter Gedeon Vegyeszeti Gyar RT, priority 1989, dated 1991)
Read-outs that look alike come from different tables or passages of the source.

What was measured:
[1] = system: spontaneous gastric acid secretion; assay: Gastric acid secretion-inhibiting effect according to Shay's method; format: in vivo, female OFA rats; conditions: for Gastric acid, change / Gastric juice, change: vs control; for Gastric acid, treated: titration with 0.1N NaOH
Description: After being starved for 24 hours, female OFA rats weighing 130 to 160 g were orally treated with the compounds to be tested. (15 animals were used for each dose.) One hour later laparotomy and pylorus ligature were carried out under ether anaesthesia according to Shay [Gastroenterology 5, 43 (1945)]. After 5 hours the animals were killed by an overdose of ether, their stomaches were excised and the volume and acid content of the gastric juice were determined. The acid was measured by titration with 0.1N NaOH, by using Topfer's indicator.

[2] = system: histamine-induced gastric acid secretion; assay: Inhibition of the histamine-induced gastric acid secretion in rats; format: in vivo, male OFA rats; conditions: for Gastric acid, change / Gastric juice, change: vs control; for Gastric juice, treated: histamine 5 mg/kg/hour;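 as to Gastric acid, treated: dosed 30 min before a 5 hour experiment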
Description: (§1) After being starved for 24 hours, male OFA rats weighing 250 to 320 g were anaestethized by 40% urethane (0.5 ml/100 g), then the trachea and jugular vein were cannulated (10 animals were used for each dose). A glass cannula was inserted to the stomach from the direction of the pylorus. The stomach was washed with lukewarm water and then purified by air blown through. The gastric acid secretion was induced by an infusion of histamine (5 mg/kg/hour), or pentagastrin (0.05 mg/kg/hour) or carbachol (0.01 mg/kg/hour), respectively. […]

[3] = system: pentagastrin-induced gastric acid secretion; assay: Inhibition of the pentagastrin-induced gastric acid secretion in rats; format: in vivo, male OFA rats; conditions: for Gastric acid, change / Gastric juice, change: vs control; for Gastric juice, treated: pentagastrin 0.05 mg/kg/hour;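 as to Gastric acid, treated: dosed 30 min before a 5 hour experiment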
Description: as §1

[4] = system: carbachol-induced gastric acid secretion; assay: Inhibition of the carbachol-induced gastric acid secretion in rats; format: in vivo, male OFA rats; conditions: for Gastric acid, change / Gastric juice, change: vs control; for Gastric juice, treated: carbachol 0.01 mg/kg/hour;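 as to Gastric acid, treated: dosed 30 min before a 5 hour experiment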
Description: as §1

[5] = system: gastric ulcer after pylorus ligature; assay: Gastric ulcer-inhibiting effect in rats operated according to Shay's method; format: in vivo, female OFA rats; conditions: Rattus norvegicus, po, 18 h, p.o.
Description: Female OFA rats starved for 24 hours weighing 150 to 160 g were used. (The animals were allowed to drink water ad libitum). The animals were orally treated with the substance to be tested and after 1 hour laparotomy and pylorus ligature according to Shay [Gastroenterology 5, 43 (1945)] were performed under ether anaesthesia. After 18 hours the number and size of ulcers formed on the membranaceous part of the stomach were examined under microscope. The evaluation was made in relation to the control group and the ED50 values were determined. The sizes of the ulcers were expressed as score values from 0.5 to 32.

[6] = system: reserpine-induced gastric ulcer; assay: Inhibition of the reserpine-induced gastric ulcer; format: in vivo, female OFA rats; conditions: Rattus norvegicus, po, 18 h, p.o., reserpine 5 mg/kg s.c.
Description: After being starved for 24 hours, female OFA rats were orally treated with the compounds to be tested and then subcutaneously (s.c.) with 5 mg/kg of reserpine after 1 hour. After 18 hours the animals were killed and their stomach were examined under microscope. The evaluation was performed as described under the preceding paragraph 1.

[7] = system: gastric ulcer induced by Aspirin plus stress; assay: Inhibition of the gastric ulcer induced by Aspirin plus stress; format: in vivo, female RG-Wistar rats; conditions: Rattus norvegicus, po; Aspirin plus stress
Description: After being starved for 24 hours, female RG-Wistar rats weighing 120 to 150 g were orally treated with the compound to be tested and then orally with Aspirin. The animals were sensitized by the aspirin pretreatment and a strong ulceration was induced in the glandular part of stomach of the animals by a subsequent stress (fastening, ducking in water of 22° C. temperature). The ulceration was evaluated as score values from 0 to 2.

[8] = system: acetic acid-induced chronic ulcer; assay: Recovery-influencing effect on the acetic acid-induced chronic ulcer; format: in vivo, female RG-Wistar rats; conditions: 15 mg/kg oral dose, daily twice for 15 days
Description: After anaesthesia by ether and laparotomy, 50 μl of 20% acetic acid were injected into the stomach wall of female RG-Wistar rats. After 5 days the animals were orally treated with the compounds to be tested daily twice for 15 days. On the 16th day the animals were killed by ether and the size of the ulcers appearing on the stomach was measured. The grade of recovery was defined in relation to the control group.

Acute toxicity, mouse = conditions: in vivo
Description: (§2) These investigations were carried out in OFI mice and OFA rats after starving for 24 hours. Ten animals were used for each dose. The number of doses was 3 or 4.

Acute toxicity, rat = conditions: in vivo
Description: as §2

[9] = read-out: ED50 related to the number of ulcers
[10] = read-out: ED50 related to the occurrance of ulcers
[11] = read-out: ED50 related to the severity of ulcers

SMILES: CN(C)c1ccccc1C[S+]([O-])c1nc2ccccc2[nH]1 (centres unmarked) [NC-1300, 2-[(2-dimethylaminobenzyl)sulfinyl]-1H-benzimidazole, reference compound]
- Gastric juice, treated ([1]; 10 mg/kg p.o.): 6.11 mL
- Gastric acid, change ([1]; 10 mg/kg p.o.): -34.0%
- Gastric juice, change ([1]; 10 mg/kg p.o.): -16.3%
- Gastric acid, treated ([1]; 10 mg/kg p.o.): 2.74 mL
- Gastric juice, treated ([1]; 20 mg/kg p.o.): 4.63 mL
- Gastric acid, change ([1]; 20 mg/kg p.o.): -58.2%
- Gastric juice, change ([1]; 20 mg/kg p.o.): -17.5%
- Gastric acid, treated ([1]; 20 mg/kg p.o.): 1.36 mL
- Gastric juice, treated ([1]; 50 mg/kg p.o.): 4.50 mL
- Gastric acid, change ([1]; 50 mg/kg p.o.): -88.1%
- Gastric juice, change ([1]; 50 mg/kg p.o.): -23.7%
- Gastric acid, treated ([1]; 50 mg/kg p.o.): 0.41 mL
- ED50 ([1]; po, gastric acid, Shay rat): 16 mg/kg
- Gastric acid, treated ([2]; 5 mg/kg i.p.): 1.97 mL
- Gastric acid, change ([2]; 5 mg/kg i.p.): -43%
- Gastric juice, change ([2]; 5 mg/kg i.p.): -45%
- Gastric juice, treated ([2]; 5 mg/kg i.p.): 1.27 mL
- Gastric acid, treated ([2]; 10 mg/kg i.p.): 0.78 mL
- Gastric acid, change ([2]; 10 mg/kg i.p.): -77%
- Gastric juice, change ([2]; 10 mg/kg i.p.): -79%
- Gastric juice, treated ([2]; 10 mg/kg i.p.): 0.49 mL
- Gastric acid, treated ([2]; 20 mg/kg i.p.): 0.61 mL
- Gastric acid, change ([2]; 20 mg/kg i.p.): -82%
- Gastric juice, change ([2]; 20 mg/kg i.p.): -78%
- Gastric juice, treated ([2]; 20 mg/kg i.p.): 0.50 mL
- ED50 ([2]; Rattus norvegicus, ip, histamine-induced, dose column i.p.): 6 mg/kg
- Gastric acid, treated ([3]; 5 mg/kg i.p.): 1.25 mL
- Gastric acid, change ([3]; 5 mg/kg i.p.): -23%
- Gastric juice, change ([3]; 5 mg/kg i.p.): -26%
- Gastric juice, treated ([3]; 5 mg/kg i.p.): 0.92 mL
- Gastric acid, treated ([3]; 10 mg/kg i.p.): 0.47 mL
- Gastric acid, change ([3]; 10 mg/kg i.p.): -74%
- Gastric juice, change ([3]; 10 mg/kg i.p.): -70%
- Gastric juice, treated ([3]; 10 mg/kg i.p.): 0.35 mL
- Gastric acid, treated ([3]; 20 mg/kg i.p.): 0.32 mL
- Gastric acid, change ([3]; 20 mg/kg i.p.): -82%
- Gastric juice, change ([3]; 20 mg/kg i.p.): -77%
- Gastric juice, treated ([3]; 20 mg/kg i.p.): 0.27 mL
- ED50 ([3]; Rattus norvegicus, ip, pentagastrin-induced, dose column i.p.): 7.9 mg/kg
- Gastric acid, treated ([4]; 6.25 mg/kg i.p.): 1.89 mL
- Gastric acid, change ([4]; 6.25 mg/kg i.p.): -31%
- Gastric juice, change ([4]; 6.25 mg/kg i.p.): -25%
- Gastric juice, treated ([4]; 6.25 mg/kg i.p.): 1.55 mL
- Gastric acid, treated ([4]; 9 mg/kg i.p.): 1.86 mL
- Gastric acid, change ([4]; 9 mg/kg i.p.): -32%
- Gastric juice, change ([4]; 9 mg/kg i.p.): -24%
- Gastric juice, treated ([4]; 9 mg/kg i.p.): 1.57 mL
- Gastric acid, treated ([4]; 12.5 mg/kg i.p.): 0.72 mL
- Gastric acid, change ([4]; 12.5 mg/kg i.p.): -74%
- Gastric juice, change ([4]; 12.5 mg/kg i.p.): -58%
- Gastric juice, treated ([4]; 12.5 mg/kg i.p.): 0.87 mL
- ED50 ([4]; Rattus norvegicus, ip, carbachol-induced, dose column i.p.): 9.6 mg/kg
- ED50 [5, 9]: 7.4 mg/kg
- ED50 [5, 10]: 14.5 mg/kg
- ED50 [5, 11]: 5.7 mg/kg
- ED50 [6, 9]: 8 mg/kg
- ED50 [6, 10]: 18 mg/kg
- ED50 [6, 11]: 6 mg/kg
- ED50 [7]: 11.9 mg/kg
- increase in the recovery [8]: 37%
- LD50 (Acute toxicity, mouse; ip, female mouse): 415 mg/kg
- LD50 (Acute toxicity, mouse; ip, male mouse): 410 mg/kg
- LD50 (Acute toxicity, mouse; po, female mouse, precision restricted by solubility): > 1000 mg/kg
- LD50 (Acute toxicity, mouse; po, male mouse, precision restricted by solubility): > 1000 mg/kg
- LD50 (Acute toxicity, rat; ip, female rat): 245 mg/kg
- LD50 (Acute toxicity, rat; ip, male rat): 270 mg/kg
- LD50 (Acute toxicity, rat; po, female rat, precision restricted by solubility): 1400 mg/kg
- LD50 (Acute toxicity, rat; po, male rat, precision restricted by solubility): 1300 mg/kg
